The target of one test is T1, CDK8/CycC (Homo sapiens, UniProt P49336).
T1 construct: purchased ProQinase GmbH, Freiburg, Germany
Nature of the test: Radiometric protein kinase assay (33PanQinase Activity Assay, ProQinase). The class given is biochemical. The note with it: 1.0 μM ATP, 1.0 μg/50 μL substrate RBER-IRStide, duplicate measurements, read-out: CDK8 Kinase inhibition IC50. Here is the method: The kinase activity of CDK8/CycC was measured using a radiometric protein kinase assay (33PanQinase® Activity Assay) by ProQinase GmbH, Freiburg, Germany, with the protocols shown at www.proqinase.com/sites/default/files/public/uploads/WildtypeProfiler/radiometric_assay_v05_2012_manual.pdf. IC50 determination (8.3 nM with 1.0 μM ATP and 1.0 μg/50 μL of substrate RBER-IRStide) was performed as duplicate measurements and calculated using Quattro Workflow V3.1.1 (Quattro Research GmbH, Germany). Apparent inhibition constants (Ki) values were calculated from Km (ATP) and IC50 values for the respective kinases.

The subject of the next test is MV-4-11. Description: Cell viability assay (resazurin, leukemia cell lines), 72 h growth inhibition. The class given is cell-based. The note with it: Homo sapiens, MV4-11, MV-4-11 cells. From the text:
(§1) Compounds from Example 1 may be subjected to a standard MTT (3-(4,5-dimethylthiazol-2-yl)-2,5-diphenyltetrazolium bromide) and resazurin assays on solid tumour cell lines and leukemia cell lines, respectively, as previously reported (Wang S et al., J Med Chem 47:1662-1675, 2004 and Diab S e al. CheMedChem 9:962-972, 2014). Compound concentrations required to inhibit 50% of cell growth (GI50) can be calculated using non-linear regression analysis.

A further test concerns HCT-116. Nature of the test: Cell viability assay (MTT, solid tumour cell lines), 72 h growth inhibition. In kind it is cell-based. The note with it: Homo sapiens, HCT-116 cells.
Description: as §1

T1 sequence (P49336 whole entry): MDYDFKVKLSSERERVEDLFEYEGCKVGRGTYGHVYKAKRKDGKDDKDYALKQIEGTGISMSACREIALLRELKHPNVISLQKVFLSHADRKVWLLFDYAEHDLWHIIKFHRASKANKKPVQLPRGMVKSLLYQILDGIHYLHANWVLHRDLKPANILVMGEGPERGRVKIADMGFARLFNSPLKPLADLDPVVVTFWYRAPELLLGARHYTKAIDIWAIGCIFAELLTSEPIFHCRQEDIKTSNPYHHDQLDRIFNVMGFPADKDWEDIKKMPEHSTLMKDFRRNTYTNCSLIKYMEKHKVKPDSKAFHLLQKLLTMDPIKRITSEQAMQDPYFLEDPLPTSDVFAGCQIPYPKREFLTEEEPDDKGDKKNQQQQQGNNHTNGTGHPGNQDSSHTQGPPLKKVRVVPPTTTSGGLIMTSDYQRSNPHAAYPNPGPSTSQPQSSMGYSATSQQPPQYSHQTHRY
T1 sequence (P24863 whole entry partner): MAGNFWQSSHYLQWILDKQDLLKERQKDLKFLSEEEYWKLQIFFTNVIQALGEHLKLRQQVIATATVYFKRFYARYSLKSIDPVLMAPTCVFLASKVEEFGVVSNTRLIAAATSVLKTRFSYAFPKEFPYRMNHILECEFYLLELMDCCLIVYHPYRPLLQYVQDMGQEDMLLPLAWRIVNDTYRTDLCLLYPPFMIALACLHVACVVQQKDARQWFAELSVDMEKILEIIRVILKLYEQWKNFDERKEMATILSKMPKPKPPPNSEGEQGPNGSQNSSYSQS

In the case of `CNc1nccc(-c2sc(NC(=O)Nc3ccc(C)c(C(F)(F)F)c3)nc2C)n1` [Compound 26, 1-(4-Methyl-3-(trifluoromethyl)-phenyl)-3-(4-methyl-5-(2-(methylamino)pyrimidin-4-yl)thiazol-2-yl)urea], the IC50 (in general, the concentration that inhibits the measured activity by half) at CDK8/CycC stood at 15 nM. Further, the GI50 (usually the concentration at which growth is held to half of that of the control) in the test with MV-4-11 stood at 2560 ± 490 nM; in the test on HCT-116, 5100 ± 660 nM.
As for `CNc1nccc(-c2sc(NC(=O)Nc3cccc(SC)c3)nc2C)n1` [Compound 21, 1-(4-Methyl-5-(2-(methylamino)-pyrimidin-4-yl)thiazol-2-yl)-3-(3-(methylthio)phenyl)urea], the IC50 on CDK8/CycC is 9 nM. For the same molecule, the 50% growth inhibitory concentration (GI50) in the test with MV-4-11 was 3350 ± 190 nM; in the test on HCT-116 it was 6130 ± 910 nM.
`CC(=O)N1CCN(Cc2ccc(NC(=O)Nc3nc(C)c(-c4ccnc(N(C)C)n4)s3)cc2C(F)(F)F)CC1` [Compound 50, 1-(4-((4-Acetylpiperazin-1-yl)methyl)-3-(trifluoromethyl)-phenyl)-3-(5-(2-(dimethylamino)-pyrimidin-4-yl)-4-methylthiazol-2-yl)urea]: the IC50 on CDK8/CycC was 202 nM. Further, halving of growth in the test on MV-4-11 (GI50) required 612 ± 60 nM.
With `CSc1nccc(-c2sc(NC(=O)Nc3ccc(CN4CCN(S(C)(=O)=O)CC4)c(C(F)(F)F)c3)nc2C)n1` [Compound 82, 1-(4-Methyl-5-(2-(methylthio)pyrimidin-4-yl)thiazol-2-yl)-3-(4-((4-(methyl-sulfonyl)piperazin-1-yl)methyl)-3-(trifluoromethyl)phenyl)urea], the IC50 at CDK8/CycC turned out to be 220 nM. In the test on MV-4-11, this molecule showed a GI50 of 721 ± 30 nM.
In the case of `CNc1ncc(F)c(-c2sc(NC(=O)Nc3ccc(CN4CCOCC4)c(C(F)(F)F)c3)nc2C)n1` [Compound 70, 1-(5-(5-Fluoro-2-(methylamino)pyrimidin-4-yl)-4-methylthiazol-2-yl)-3-(4-(morpholinomethyl)-3-(trifluoromethyl)phenyl)urea], the IC50 at CDK8/CycC came to 25 nM. Besides, halving of growth in the test with MV-4-11 (GI50) required 273 ± 10 nM.
For `CNc1ncc(Cl)c(-c2sc(NC(=O)Nc3ccc(CN4CCN(C(C)C)CC4)c(C(F)(F)F)c3)nc2C)n1` [Compound 67, 1-(5-(5-Chloro-2-(methylamino)pyrimidin-4-yl)-4-methylthiazol-2-yl)-3-(4-((4-isopropylpiperazin-1-yl)methyl)-3-(trifluoromethyl)phenyl)urea], in that order: 30 nM and 174 ± 10 nM.
With `CNc1ncc(C#N)c(-c2sc(NC(=O)Nc3ccc(CN4CCN(C(C)C)CC4)c(C(F)(F)F)c3)nc2C)n1` [Compound 73, 1-(5-(5-Cyano-2-(methylamino)pyrimidin-4-yl)-4-methylthiazol-2-yl)-3-(4-((4-isopropylpiperazin-1-yl)methyl)-3-(trifluoromethyl)phenyl)urea], at CDK8/CycC, the IC50 came to 59 nM. The same molecule gave a GI50 with MV-4-11 of 482 ± 30 nM.
For the molecule `CNc1ncc(C#N)c(-c2sc(NC(=O)Nc3ccc(CN4CCN(S(C)(=O)=O)CC4)c(C(F)(F)F)c3)nc2C)n1` [Compound 74, 1-(5-(5-Cyano-2-(methylamino)pyrimidin-4-yl)-4-methylthiazol-2-yl)-3-(4-((4-(methylsulfonyl)piperazin-1-yl)methyl)-3-(trifluoromethyl)phenyl)urea], the IC50 on CDK8/CycC was determined as 272 nM. For the same molecule, growth with MV-4-11 was halved (GI50) at 3250 ± 350 nM.
As to `CNc1nccc(-c2sc(NC(=O)Nc3ccc(CN4CCN(C(C)C)CC4)c(C(F)(F)F)c3)nc2C)n1` [Compound 34, 1-(4-((4-Isopropylpiperazin-1-yl)methyl)-3-(trifluoromethyl)-phenyl)-3-(4-methyl-5-(2-(methylamino)pyrimidin-4-yl)thiazol-2-yl)urea], the IC50 on CDK8/CycC is 11 nM. In addition, the concentration for 50% growth inhibition (GI50) in the test on MV-4-11 was less than 1 nM.
In the case of `Cc1nc(NC(=O)Nc2ccc(CN3CCN(C)CC3)c(C(F)(F)F)c2)sc1-c1ccnc(C(C)C)n1` [Compound 76, 1-(5-(2-Isopropylpyrimidin-4-yl)-4-methylthiazol-2-yl)-3-(4-((4-methylpiperazin-1-yl)methyl)-3-(trifluoromethyl)phenyl)urea], on CDK8/CycC, the IC50 is 74 nM. The GI50 in the test on MV-4-11 was less than 1 nM.
Consider `CNc1ncc(Cl)c(-c2sc(NC(=O)Nc3ccc(CN4CCN(C)CC4)c(C(F)(F)F)c3)nc2C)n1` [Compound 65, 1-(5-(5-Chloro-2-(methylamino)pyrimidin-4-yl)-4-methylthiazol-2-yl)-3-(4-((4-methylpiperazin-1-yl)methyl)-3-(trifluoromethyl)phenyl)urea], for which the IC50 at CDK8/CycC turned out to be 15 nM. The same molecule returned a GI50 with MV-4-11 of 55 ± 10 nM.
For `Cc1nc(NC(=O)Nc2ccc(CN3CCN(C(C)C)CC3)c(C(F)(F)F)c2)sc1-c1ccnc(N)n1` [Compound 63, 1-(5-(2-Aminopyrimidin-4-yl)-4-methylthiazol-2-yl)-3-(4-((4-isopropylpiperazin-1-yl)methyl)-3-(trifluoromethyl)phenyl)urea], in that order: 13 nM and 3 nM.
Consider `CCOc1cccc(NC(=O)Nc2nc(C)c(-c3ccnc(NC)n3)s2)c1` [Compound 19, 1-(3-Ethoxyphenyl)-3-(4-methyl-5-(2-(methylamino)pyrimidin-4-yl)thiazol-2-yl)urea], for which, at CDK8/CycC, the IC50 is 6 nM. This molecule yielded a GI50 in the test with HCT-116 of 854 ± 10 nM.
Take `CNc1nccc(-c2sc(NC(=O)Nc3cccc(OC)c3)nc2C)n1` [Compound 16, 1-(3-Methoxyphenyl)-3-(4-methyl-5-(2-(methylamino)pyrimidin-4-yl)thiazol-2-yl)urea]: the IC50 at CDK8/CycC came to 9 nM. The GI50 in the test with MV-4-11 stood at 2270 ± 680 nM.
Take `CNc1nccc(-c2sc(NC(=O)Nc3ccc(CN4CCC(C)CC4)c(C(F)(F)F)c3)nc2C)n1` [Compound 40, 1-(4-Methyl-5-(2-(methylamino)-pyrimidin-4-yl)thiazol-2-yl)-3-(4-((4-methylpiperidin-1-yl)methyl)-3-(trifluoromethyl)phenyl)urea]: the half-maximal inhibitory concentration (IC50) at CDK8/CycC amounted to 34 nM. For the same molecule, in the test with MV-4-11, growth was halved (GI50) at 2510 ± 390 nM.
`CNc1ncc(Cl)c(-c2sc(NC(=O)Nc3ccc(CN4CCN(C(C)=O)CC4)c(C(F)(F)F)c3)nc2C)n1` [Compound 68, 1-(4-((4-Acetylpiperazin-1-yl)methyl)-3-(trifluoromethyl)phenyl)-3-(5-(5-chloro-2-(methylamino)pyrimidin-4-yl)-4-methylthiazol-2-yl)urea]: the IC50 at CDK8/CycC was 80 nM. Also, it took 4250 ± 420 nM to inhibit growth in the test with MV-4-11 by half (GI50).
As to `CCNc1nccc(-c2sc(NC(=O)Nc3ccc(CN4CCN(C)CC4)c(C(F)(F)F)c3)nc2C)n1` [Compound 52, 1-(5-(2-(Ethylamino)pyrimidin-4-yl)-4-methylthiazol-2-yl)-3-(4-((4-methylpiperazin-1-yl)methyl)-3-(trifluoromethyl)phenyl)urea], the IC50 on CDK8/CycC amounted to 15 nM. In the test with MV-4-11, this molecule came in with a GI50 of less than 1 nM.
For `CNc1nccc(-c2sc(NC(=O)Nc3ccc(CN4CCN(S(C)(=O)=O)CC4)c(C(F)(F)F)c3)nc2C)n1` [Compound 36, 1-(4-Methyl-5-(2-(methylamino)-pyrimidin-4-yl)thiazol-2-yl)-3-(4-((4-(methylsulfonyl)piperazin-1-yl)methyl)-3-(trifluoromethyl)-phenyl)urea], in that order: 32 nM and 76 ± 10 nM.
With `CCNc1nccc(-c2sc(NC(=O)Nc3ccc(CN4CCN(C(C)=O)CC4)c(C(F)(F)F)c3)nc2C)n1` [Compound 55, 1-(4-((4-Acetylpiperazin-1-yl)methyl)-3-(trifluoromethyl)-phenyl)-3-(5-(2-(ethylamino)-pyrimidin-4-yl)-4-methylthiazol-2-yl)urea], the IC50 at CDK8/CycC came to 35 nM. This molecule showed a GI50 in the test on MV-4-11 of 214 ± 120 nM.
With `CCNc1nccc(-c2sc(NC(=O)Nc3ccc(CN4CCC(C)CC4)c(C(F)(F)F)c3)nc2C)n1` [Compound 57, 1-(5-(2-(Ethylamino)pyrimidin-4-yl)-4-methylthiazol-2-yl)-3-(4-((4-methylpiperidin-1-yl)methyl)-3-(trifluoromethyl)phenyl)urea], the IC50 on CDK8/CycC stood at 49 nM. Besides, in the test on MV-4-11, the GI50 came out at 6160 ± 140 nM.
`CNc1nccc(-c2cnc(NC(=O)Nc3ccc(CN4CCN(C(C)=O)CC4)c(C(F)(F)F)c3)s2)n1` [Compound 61, 1-(4-((4-Acetylpiperazin-1-yl)methyl)-3-(trifluoromethyl)phenyl)-3-(5-(2-(methylamino)pyrimidin-4-yl)thiazol-2-yl)urea]: the half-inhibitory concentration (IC50) at CDK8/CycC was 20 nM. The same molecule returned a GI50 in the test with MV-4-11 of 176 ± 40 nM.
For `CSc1nccc(-c2sc(NC(=O)Nc3ccc(CN4CCN(C(C)=O)CC4)c(C(F)(F)F)c3)nc2C)n1` [Compound 81, 1-(4-((4-Acetylpiperazin-1-yl)methyl)-3-(trifluoromethyl)phenyl)-3-(4-methyl-5-(2-(methylthio)pyrimidin-4-yl)thiazol-2-yl)urea], in that order: 177 nM and 715 ± 10 nM.
As to `CNc1ncc(Cl)c(-c2sc(NC(=O)Nc3ccc(CN4CCN(S(C)(=O)=O)CC4)c(C(F)(F)F)c3)nc2C)n1` [Compound 69, 1-(5-(5-Chloro-2-(methylamino)pyrimidin-4-yl)-4-methylthiazol-2-yl)-3-(4-((4-(methylsulfonyl)piperazin-1-yl)methyl)-3-(trifluoromethyl)phenyl)urea], at CDK8/CycC, the half-maximal inhibitory concentration (IC50) worked out at 132 nM. Further, halving of growth with MV-4-11 (GI50) required 4690 ± 420 nM.
Consider `CNc1nccc(-c2cnc(NC(=O)Nc3ccc(CN4CCN(C(C)C)CC4)c(C(F)(F)F)c3)s2)n1` [Compound 60, 1-(4-((4-Isopropylpiperazin-1-yl)methyl)-3-(trifluoromethyl)phenyl)-3-(5-(2-(methylamino)pyrimidin-4-yl)thiazol-2-yl)urea], for which the concentration for half-maximal inhibition (IC50) on CDK8/CycC came out at 16 nM. In the test with MV-4-11, this molecule returned a GI50 of 7 nM.

Source of the values: US11325900B2, “5-(pyrimidin-4-yl)thiazol-2-yl urea derivatives as therapeutic agents” (AUCENTRA HOLDINGS PTY LTD, priority 2018, dated 2022).
